From paper PMC10094929, “Determination of Phenol with Peroxidase Immobilized on CaCO3” (International Journal of Molecular Sciences, 2023)

System: T1, native peroxidase (horseradish peroxidase)
T1 construct: gene PRXC1A
Settings: free enzyme; phenol varied; 4-aminoantipyrine 0.3 mmol/L, hydrogen peroxide 4.68 mmol/L; 0.1 M phosphate-buffered saline pH 7.2; 24 °C

For `Oc1ccccc1` [phenol], the Km was 994 µM.
